Experimental data as given in patent US10100050B2 (CHIESI FARMACEUTICI S.P.A., priority 2015, dated 2018).
“And” between values parts separate entries of the source, which are not always exact repeats. Equal entries are not always repeated. Structures can show the parent of a compound that is named as a salt.

Experiments:
[1] = target: T1, p38alpha (Homo sapiens, UniProt Q16539); test: P38alpha enzyme inhibition assay (Alphascreen kinase activity assay); type: biochemical; details: IC50 classes; 2 hours preincubation at 25° C., 250 μM ATP; read-out: p38α inhibition
T1 construct: purchased Invitrogen PV3304
T1 sequence (Q16539 whole entry): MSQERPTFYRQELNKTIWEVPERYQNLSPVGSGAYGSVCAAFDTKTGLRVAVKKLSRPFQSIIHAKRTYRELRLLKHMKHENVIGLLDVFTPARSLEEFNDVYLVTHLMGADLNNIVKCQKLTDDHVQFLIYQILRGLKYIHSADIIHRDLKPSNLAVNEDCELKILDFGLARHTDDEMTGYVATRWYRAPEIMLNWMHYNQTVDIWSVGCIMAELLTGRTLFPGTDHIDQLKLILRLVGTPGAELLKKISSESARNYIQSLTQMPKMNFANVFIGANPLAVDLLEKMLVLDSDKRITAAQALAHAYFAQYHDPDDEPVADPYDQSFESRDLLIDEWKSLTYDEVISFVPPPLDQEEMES
Description: P38alpha Enzyme Inhibition Assay
The inhibitory activity of compounds was determined using an Alphascreen® (Perkin Elmer) based kinase activity assay. Kinase reactions consisted of 25 mM HEPES pH 7.5, 10 mM MgCl2, 100 μM Na3VO4, 2 mM DTT, 0.05 mg/ml Tween […] (Invitrogen, PV3304), 1% DMSO and 0.3 μg/ml ATF-2 fusion protein (New England Biolabs, 9224). Compounds were incubated under these conditions for 2 hours, at 25° C., prior to the initiation of the kinase activity by the addition of the 250 μM ATP. Reaction volumes were 20 uL. After 1 hr at 25° C. reactions were stopped by the adding 10 uL of 25 mM HEPES pH 7.5 containing 62.5 mM EDTA, 0.05% Triton X-100, 10% BSA and 0.83 ng/uL anti-phospho-ATF2 antibody (Abcam, ab28812). Detection was performed by measuring luminescence following the addition of Alphascreen Donor beads (Perkin Elmer 6765300) and Protein A Alphascreen Acceptor beads (Perkin Elmer 6760137), both at a final concentration of 20 ug/ml. IC50 values were determined from concentration-response curves.

[2] = system: Peripheral Blood Mononuclear Cells (PBMCs); test: LPS-stimulated PBMC TNFα release assay; type: cell-based; details: IC50 classes; human PBMC, LPS 10 ng/ml, 18 h; read-out: LPS-stimulated PBMC TNFα release inhibition
Description: 1-10 nM ‘+’; • <1 nM ‘++’ LPS-Stimulated PBMC TNFα Release Assay
Peripheral Blood Mononuclear Cells (PBMCs) were isolated from healthy human volunteer blood using a standard density gradient centrifugation technique. Citrated blood was placed onto Histopaque™ and centrifuged. The PBMCs were removed from the density gradient interface and washed in phosphate buffered saline (PBS). The PBMCs were suspended in RPMI 1640 medium (without serum), dispensed into a 96-well plate and incubated at 37° C. for 3 h in a humidified incubator. After incubation, the medium was replaced (with medium containing 1% foetal bovine serum) and the plate incubated at 37° C., for 1 h, in the presence of test compound or the appropriate vehicle. LPS (10 ng/ml), or an appropriate vehicle control, was then added to the cells and the plate returned to the incubator for 18 h. Cell-free supernatants were removed and assayed for TNFα levels using MSD plates on the Sector Imager 6000 (MesoScale).
A dose response curve to each test compound was performed and the effect of compound in each experiment was expressed as a percentage inhibition of the control TNFα release. Dose response curves were plotted and compound potency (IC50) was determined. Compounds were tested in at least three separate experiments.

[3] = system: BEAS-2B cells; test: TNFα-stimulated BEAS-2B IL-8 release assay; type: cell-based; details: Homo sapiens, IC50 classes, TNF-α 10 ng/ml, 18 h, read-out: TNFα-stimulated BEAS-2B IL-8 release inhibition
Description: TNFα-Stimulated BEAS-2B IL-8 Release Assay
Human bronchial epithelial cell line BEAS-2B was purchased from Sigma (St. Louis, Mo.). BEAS-2B cells were cultured in Bronchial Epithelial cell Growth Medium (BEGM), prepared by supplementing Bronchial Epithelial Basal Medium with SingleQuotes™ (Lonza, Switzerland), which contains retinoic acid, epidermal growth factor, epinephrine, transferrin, triiodothyronin, insulin, hydrocortisone, antimicrobial agents, and bovine pituitary extract. In addition, BEGM medium was supplemented with 2 mM glutamine, 100 U penicillin and 100 μg/ml streptomycin (Life Technologies), in an atmosphere of 95% air and 5% CO2 at 37° C.
BEAS-2B were seeded in 48-well plates at the density of 3×10^4 cells per well, grown to approximately 80-90% confluence. Cells were pre-incubated with p38 inhibitors for 1 hour and then stimulated with TNF-α (10 ng/ml) for 18 h at 37° C. with 5% CO2. Subsequently, supernatants were collected and used for measuring IL-8 levels using a paired antibody quantitative ELISA kit purchased from Life Technologies (detection limit: […]). All the treatments were performed at least in quadruplicate.
A concentration-response curve to each test compound was performed and the effect of compound in each experiment was expressed as a percentage inhibition of the control IL-8 release. Compound potency (IC50) was calculated by the analysis of the sigmoidal dose-response curve (variable slope) elaborated by Graph Pad PRISM4 program.

Compound | IC50 [1] | IC50 [2] | IC50 [3]
COc1c(NC(=O)N[C@H]2CC[C@@H](Oc3ccc4nnc(C(C)(C)N(C)C)n4c3)c3ccccc32)cc(C(C)(C)C)cc1NS(=O)(=O)CC(C)C [Example 16, 2-Methyl-propane-1-sulfonic acid [5-tert-butyl-3-(3-{(1S,4R)-4-[3-(1-dimethylamino-1-methyl-ethyl)-[1,2,4]triazolo[4,3-a]pyridin-6-yloxy]-1,2,3,4-tetrahydro-naphthalen-1-yl}-ureido)-2-methoxy-phenyl]-amide hydrochloride salt] | 1 to 10 nM and < 1 nM | 1 to 5 nM | 0.3 to 1 nM
COc1c(NC(C)=O)cc(C(C)(C)C)cc1NC(=O)N[C@H]1CC[C@@H](Oc2ccc3nnc(C(C)(C)N(C)C)n3c2)c2ccccc21 [Example 10, N-[5-tert-Butyl-3-(3-{(1S,4R)-4-[3-(1-dimethylamino-1-methyl-ethyl)-[1,2,4]triazolo[4,3-a]pyridin-6-yloxy]-1,2,3,4-tetrahydro-naphthalen-1-yl}-ureido)-2-methoxy-phenyl]-acetamide] | 1 to 10 nM | < 1 nM | < 0.3 nM
CNC(=O)c1cc(NC(=O)N[C@H]2CC[C@@H](Oc3ccc4nnc([C@@H]5CCCN5C)n4c3)c3ccccc32)cc(C(C)(C)C)c1 [Example 54, 3-tert-Butyl-N-methyl-5-(3-{(1S,4R)-4-[3-((S)-1-methyl-pyrrolidin-2-yl)-[1,2,4]triazolo[4,3-a]pyridin-6-yloxy]-1,2,3,4-tetrahydro-naphthalen-1-yl}-ureido)-benzamide] | < 1 nM | 1 to 5 nM | > 1 nM
CN1CCC[C@@]1(C)c1nnc2ccc(O[C@@H]3CC[C@H](NC(=O)Nc4cc(CN(CCO)CCO)cc(C(C)(C)C)c4)c4ccccc43)cn12 [Example 75, 1-(3-{[Bis-(2-hydroxy-ethyl)-amino]-methyl}-5-tert-butyl-phenyl)-3-{(1S,4R)-4-[3-((S)-1,2-dimethyl-pyrrolidin-2-yl)-[1,2,4]triazolo[4,3-a]pyridin-6-yloxy]-1,2,3,4-tetrahydro-naphthalen-1-yl}-urea] | < 1 nM | 1 to 5 nM | > 1 nM
CN1CCC[C@@]1(C)c1nnc2ccc(O[C@@H]3CC[C@H](NC(=O)Nc4cc(NS(=O)(=O)C5CC5)cc(C(C)(C)C)c4)c4ccccc43)cn12 [Example 37, Cyclopropanesulfonic acid [3-tert-butyl-5-(3-{(1S,4R)-4-[3-((S)-1,2-dimethyl-pyrrolidin-2-yl)-[1,2,4]triazolo[4,3-a]pyridin-6-yloxy]-1,2,3,4-tetrahydro-naphthalen-1-yl}-ureido)-phenyl]-amide] | 1 to 10 nM | < 1 nM | < 0.3 nM
CN1CCC[C@@]1(C)c1nnc2ccc(O[C@@H]3CC[C@H](NC(=O)Nc4cc(C(N)=O)cc(C(C)(C)C)c4)c4ccccc43)cn12 [Example 53, 3-tert-Butyl-5-(3-{(1S,4R)-4-[3-((S)-1,2-dimethyl-pyrmlidin-2-yl)-[1,2,4]triazolo[4,3-a]pyridin-6-yloxy]-1,2,3,4-tetrahydro-naphthalen-1-yl}-ureido)-benzamide] | < 1 nM | < 1 nM | < 0.3 nM
COC(=O)c1cc(NC(=O)N[C@H]2CC[C@@H](Oc3ccc4nnc([C@]5(C)CCCN5C)n4c3)c3ccccc32)cc(C(C)(C)C)c1 [Example 41, 3-tert-Butyl-5-(3-{(1S,4R)-4-[3-((S)-1,2-dimethyl-pyrrolidin-2-yl)-[1,2,4]triazolo[4,3-a]pyridin-6-yloxy]-1,2,3,4-tetrahydro-naphthalen-1-yl}-ureido)-benzoic acid methyl ester] | 1 to 10 nM | – | < 0.3 nM

Further lines, with some results ahead:

IC50 [1] | Compound | IC50 [2] | IC50 [3]
< 1 nM | CN1CCC[C@@]1(C)c1nnc2ccc(O[C@@H]3CC[C@H](NC(=O)Nc4cc(NS(C)(=O)=O)cc(C(C)(C)C)c4)c4ccccc43)cn12 [Example 24, N-[3-tert-Butyl-5-(3-{(1S,4R)-4-[3-((S)-1,2-dimethyl-pyrrolidin-2-yl)-[1,2,4]triazolo[4,3-a]pyridin-6-yloxy]-1,2,3,4-tetrahydro-naphthalen-1-yl}-ureido)-phenyl]-methanesulfonamide] | < 1 nM | < 0.3 nM
< 1 nM | CN1CCC[C@@]1(C)c1nnc2ccc(O[C@@H]3CC[C@H](NC(=O)Nc4cc(N)cc(C(C)(C)C)c4)c4ccccc43)cn12 [Example 35] | 1 to 5 nM | < 0.3 nM
< 1 nM | CN1CCC[C@@]1(C)c1nnc2ccc(O[C@@H]3CC[C@H](NC(=O)Nc4cc(CS(C)(=O)=O)cc(C(C)(C)C)c4)c4ccccc43)cn12 [Example 42, 1-(3-tert-Butyl-5-methanesulfonylmethyl-phenyl)-3-{(1S,4R)-4-[3-((S)-1,2-dimethyl-pyrrolidin-2-yl)-[1,2,4]triazolo[4,3-a]pyridin-6-yloxy]-1,2,3,4-tetrahydro-naphthalen-1-yl}-urea] | < 1 nM | < 0.3 nM
< 1 nM | COc1c(CO)cc(C(C)(C)C)cc1NC(=O)N[C@H]1CC[C@@H](Oc2ccc3nnc([C@]4(C)CCCN4C)n3c2)c2ccccc21 [Example 3, 1-(5-tert-Butyl-3-hydroxymethyl-2-methoxy-phenyl)-3-{(1S,4R)-4-[-3-((S)-1,2-dimethyl-pyrrolidin-2-yl)-[1,2,4]triazolo[4,3-a]pyridin-6-yloxy]-1,2,3,4-tetrahydro-naphthalen-1-yl}-urea hydrochloride salt] | < 1 nM | < 0.3 nM
< 1 nM | CC(=O)OCc1cc(NC(=O)N[C@H]2CC[C@@H](Oc3ccc4nnc([C@@H]5CCCN5C)n4c3)c3ccccc32)cc(C(C)(C)C)c1 [Example 43, Acetic acid 3-tert-butyl-5-(3-{(1S,4R)-4-[3-((S)-1-methyl-pyrrolidin-2-yl)-[1,2,4]triazolo[4,3-a]pyridin-6-yloxy]-1,2,3,4-tetrahydro-naphthalen-1-yl}-ureido)-benzyl ester] | 1 to 5 nM | < 0.3 nM
< 1 nM | CN1CCC[C@@]1(C)c1nnc2ccc(O[C@@H]3CC[C@H](NC(=O)Nc4cc(C(C)(C)C)cc(S(C)(=O)=O)c4)c4ccccc43)cn12 [Example 47, 1-(3-tert-Butyl-5-methanesulfonyl-phenyl)-3-{(1S,4R)-4-[3-((S)-1,2-dimethyl-pyrrolidin-2-yl)-[1,2,4]triazolo[4,3-a]pyridin-6-yloxy]-1,2,3,4-tetrahydro-naphthalen-1-yl}-urea] | < 1 nM | < 0.3 nM
< 1 nM | CCN1CCC[C@@]1(C)c1nnc2ccc(O[C@@H]3CC[C@H](NC(=O)Nc4cc(NS(C)(=O)=O)cc(C(C)(C)C)c4)c4ccccc43)cn12 [Example 27, N-[3-tert-Butyl-5-(3-{(1S,4R)-4-[3-((S)-1-ethyl-2-methyl-pyrrolidin-2-yl)-[1,2,4]triazolo[4,3-a]pyridin-6-yloxy]-1,2,3,4-tetrahydro-naphthalen-1-yl}-ureido)-phenyl]-methanesulfonamide] | < 1 nM | < 0.3 nM
< 1 nM | CN(CCO)Cc1cc(NC(=O)N[C@H]2CC[C@@H](Oc3ccc4nnc([C@]5(C)CCCN5C)n4c3)c3ccccc32)cc(C(C)(C)C)c1 [Example 67, 1-(3-tert-Butyl-5-{[(2-hydroxy-ethyl)-methyl-amino]-methyl}-phenyl)-3-{(1S,4R)-4-[3-((S)-1,2-dimethyl-pyrrolidin-2-yl)-[1,2,4]triazolo[4,3-a]pyridin-6-yloxy]-1,2,3,4-tetrahydro-naphthalen-1-yl}-urea] | > 5 nM | 0.3 to 1 nM
